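Interpolation was linear, between the two tested concentrations surrounding the appropriate level; five concentrations were tested over 48 hours in 96-well plates. GI50 is the concentration that inhibits growth by half. Definition used: TGI = concentration required for complete inhibition of growth.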
Tests used:
Test in all cases: inhibition of tumour cell growth, NCI panel, 48 h
[1] = system: PC-3 prostate
[2] = system: MALME-3M melanoma
[3] = system: HS 578T breast
[4] = system: IGROV1 ovarian
[5] = system: NCI-H226 lung
[6] = system: SK-OV-3 ovarian
[7] = system: NCI/ADR-RES ovarian
[8] = system: UACC-257 melanoma
[9] = system: EKVX NSCLC
[10] = system: OVCAR-3 ovarian

| SMILES | GI50 [1] [µM] | TGI [1] [µM] | GI50 [2] [µM] | TGI [2] [µM] | GI50 [3] [µM] | TGI [3] [µM] | GI50 [4] [µM] | TGI [4] [µM] | GI50 [5] [µM] | TGI [5] [µM] | GI50 [6] [µM] | TGI [6] [µM] | GI50 [7] [µM] | TGI [7] [µM] | GI50 [8] [µM] | TGI [8] [µM] | GI50 [9] [µM] | TGI [9] [µM] | GI50 [10] [µM] | TGI [10] [µM] |
| --- | --- | --- | --- | --- | --- | --- | --- | --- | --- | --- | --- | --- | --- | --- | --- | --- | --- | --- | --- | --- |
| CC(=O)ON1CCCC(P(=O)(OCOC(=O)C(C)(C)C)OCOC(=O)C(C)(C)C)C1=O (stereo not given) | 1.23 | 17.4 | 0.453 | 6.63 | 0.603 | 4.4 | 0.374 | 1.84 | 0.949 | 7.2 | 0.923 | 13.3 | 0.531 | 4.21 | 2.41 | 19.5 | 0.94 | 11.1 | 0.775 | 4.49 |
| CC(C)(CO)CNC(=O)c1ccc2[nH]c(O)c(N=Nc3ccc(S(N)(=O)=O)cc3)c2c1 | > 25 | > 25 | > 25 | > 25 | > 25 | > 25 | > 25 | > 25 | > 25 | > 25 | > 25 | > 25 | > 25 | > 25 | > 25 | > 25 | > 25 | > 25 | > 25 | > 25 |
| O=C(/C=C/C12c3ccccc3C(c3ccccc31)C1C(=O)NC(=O)C12)c1ccccn1 (stereo not given) | 1.67 | 4.46 | 2.14 | 5.05 | 3.2 | 23 | 1.36 | 6.53 | 2.98 | 11.7 | 2.4 | 8.31 | 2.81 | 10.1 | 1.88 | 3.56 | 1.91 | 4.93 | 1.45 | 2.88 |
| COc1ccc(OC)c(NCC(=O)n2nc(/C=C\c3ccc(O)c(OC)c3)cc2/C=C\c2ccc(O)c(OC)c2)c1 | 2.52 | > 100 | 3.01 | 14.6 | 2.31 | 19.2 | 2.91 | 21 | 3.16 | 16.1 | 2.38 | 6.23 | 3.5 | > 100 | 3.28 | 14.8 | 3 | 15.6 | 2.58 | 13.9 |
| CC1(C)OC[C@@H]([C@@]2(CO[Si](c3ccccc3)(c3ccccc3)C(C)(C)C)CC=CC(=O)O2)O1 | 5.92 | > 100 | 2.42 | 8.48 | 9.01 | > 100 | 5.42 | 80.2 | 5.54 | 24.1 | 33 | > 100 | 5.64 | 35.1 | 3.3 | 9.95 | 12.1 | 37.8 | 4.3 | > 100 |
| COc1ccc2c(N)ncc(C#Cc3cc(C(=O)Nc4ccc(CN5CCN(C)CC5)c(C(F)(F)F)c4)cnc3C)c2c1 | 0.924 | 3.56 | 0.322 | 1.16 | 0.847 | 4.2 | 0.437 | 2.11 | 1.27 | 9.5 | 1.7 | 15 | 1.69 | 7.42 | 1.78 | 9.22 | 5.11 | 19 | 1.31 | 5.29 |
| COc1cc2c(N3CCN(C(=O)Nc4ccc(OC(C)C)cc4)CC3)ncnc2cc1OCCCN1CCCCC1 | 18.8 | > 100 | 14.3 | 29 | 10.4 | 61.1 | 31.8 | 97.7 | 15.2 | 45.3 | 18.4 | 39.9 | 53.1 | > 100 | 10.3 | 23.6 | 28.9 | > 100 | 22.2 | > 59 |
| c1ccc(-c2[nH]ncc2-c2ccnc(-c3ccc(OCCn4ccnc4)cc3)c2)nc1 | 13.2 | > 25 | 12.2 | > 25 | > 25 | > 25 | > 25 | > 25 | > 18.7 | > 25 | > 25 | > 25 | > 25 | > 25 | > 25 | > 25 | > 25 | > 25 | 22.4 | > 25 |
| CC1=C(C(=O)Nc2ccccc2)C(c2ccc(N(C)C)cc2)C(C(=O)Nc2ccccc2)=C(C)N1 |  | > 100 |  | 39.6 |  | > 100 |  | > 88.3 |  | > 100 |  | > 100 |  | > 100 |  | > 100 |  | > 100 |  | > 100 |

Reference: PubChem BioAssay (NCI)
